Residues, ends and D or L forms follow the SMILES beside them.
Target: T1, IKKα/β heterodimer (Homo sapiens, UniProt O14920+O15111, S176E/S177E/S180E/S181E)
T1 construct: co-expression of 6×His-IKKβ(1-669) EE and Strep-IKKα(10-667) EE constructs in insect cells; Strep (followed by TEV site) (N); 6×His (followed by TEV site) (N); made in house; host or cells: Sf21 insect cells (co-infection with two baculoviruses)
T1 sequence (O15111 10-667 S176E/S180E): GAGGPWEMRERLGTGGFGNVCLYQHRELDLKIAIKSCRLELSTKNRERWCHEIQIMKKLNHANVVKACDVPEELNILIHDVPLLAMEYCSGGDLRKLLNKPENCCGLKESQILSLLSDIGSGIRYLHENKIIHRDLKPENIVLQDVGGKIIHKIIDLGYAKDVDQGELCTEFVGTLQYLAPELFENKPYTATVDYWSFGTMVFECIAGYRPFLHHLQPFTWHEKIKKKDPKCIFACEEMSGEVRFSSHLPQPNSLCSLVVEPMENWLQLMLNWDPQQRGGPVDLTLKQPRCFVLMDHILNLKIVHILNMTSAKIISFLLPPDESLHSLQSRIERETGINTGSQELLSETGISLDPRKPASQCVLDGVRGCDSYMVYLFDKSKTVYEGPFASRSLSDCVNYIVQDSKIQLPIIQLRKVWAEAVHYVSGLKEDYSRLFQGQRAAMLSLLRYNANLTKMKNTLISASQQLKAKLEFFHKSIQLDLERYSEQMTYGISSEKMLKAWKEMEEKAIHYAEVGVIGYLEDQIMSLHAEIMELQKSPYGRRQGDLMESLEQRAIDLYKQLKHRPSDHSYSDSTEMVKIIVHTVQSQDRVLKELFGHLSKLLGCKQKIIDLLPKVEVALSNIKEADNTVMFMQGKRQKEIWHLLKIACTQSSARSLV
T1 sequence (O14920 1-669 S177E/S181E): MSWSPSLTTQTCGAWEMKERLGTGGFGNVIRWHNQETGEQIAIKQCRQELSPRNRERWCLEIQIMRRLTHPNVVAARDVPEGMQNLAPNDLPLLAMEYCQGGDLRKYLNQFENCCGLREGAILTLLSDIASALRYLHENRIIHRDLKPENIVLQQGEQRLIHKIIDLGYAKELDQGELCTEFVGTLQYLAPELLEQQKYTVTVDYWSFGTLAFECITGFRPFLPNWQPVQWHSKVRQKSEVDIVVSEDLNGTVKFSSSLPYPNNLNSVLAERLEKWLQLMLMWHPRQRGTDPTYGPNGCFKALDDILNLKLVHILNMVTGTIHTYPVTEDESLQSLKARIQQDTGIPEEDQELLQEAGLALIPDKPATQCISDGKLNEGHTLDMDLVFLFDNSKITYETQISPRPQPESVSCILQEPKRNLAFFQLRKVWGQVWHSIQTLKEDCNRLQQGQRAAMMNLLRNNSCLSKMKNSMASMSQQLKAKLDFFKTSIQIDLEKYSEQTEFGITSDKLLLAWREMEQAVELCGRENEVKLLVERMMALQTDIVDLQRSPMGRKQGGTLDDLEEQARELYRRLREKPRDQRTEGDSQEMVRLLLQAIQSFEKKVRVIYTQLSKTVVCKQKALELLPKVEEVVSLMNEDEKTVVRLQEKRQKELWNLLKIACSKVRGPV
Experiment: MBP-pulldown of reconstituted IKKα/β heterodimer
Type: binding
Method: IKKα/β heterodimer. SF21 cells expressing the Strep-IKKα(10-667) EE and 6×His-IKKβ(1-669) EE proteins were resuspended in lysis buffer (100 mM Tris-HCl pH 8.0, 150 mM NaCl, 10% glycerol, 2 mM DTT, 2 μg/ml DNaseI, 0.2 μg/ml RNAse, Roche Complete protease inhibitor cocktail) and lysed by mild sonication. Lysates were centrifuged at 14500 g for 45 minutes at 4° C. The supernatants were applied by gravity flow to Strep-Tactin XT 4F resin (IBA-lifesciences) pre-equilibrated in wash buffer (100 mM Tris-HCl pH 8, 150 mM NaCl, 10% glycerol, 1 mM EDTA, and 2 mM DTT). The resin was extensively washed with wash buffer and the proteins eluted with elution buffer (100 mM Tris-HCl pH 8, 150 mM NaCl, 10% glycerol, 2 mM DTT, and 50 mM biotin). The eluate was then applied to Ni^2+-NTA resin, which was washed and eluted as described above for the IKK homodimers. IKKα/β heterodimer samples were then concentrated and incubated in presence of 1 mM ATP plus additives (see above) for 1 hour on ice. Finally, samples were purified by gel filtration chromatography using a Superdex 200 10/30 column (GE Healthcare) pre-equilibrated in gel filtration buffer 1 (20 mM Tris-HCl PH 8.0, 150 mM NaCl, 5% Glycerol, 2 mM DTT).
Experiments were performed in PD buffer (20 mM Tris pH 8.0, 150 mM NaCl, 2 mM DTT). […] Quantification of band intensity was done using the Image J software. […]

## CC(C)C[C@H](NC(=O)[C@@H](NC(=O)[C@H](CC(C)C)NC(=O)[C@H](CCCNC(=N)N)NC(=O)[C@H](CCC(N)=O)NC(=O)CNC(=O)CNC(=O)[C@H](Cc1ccccc1)NC(=O)[C@@H](NC(=O)[C@H](CS)NC(=O)[C@H](CC(=O)O)NC(=O)[C@H](CC(=O)O)NC(=O)[C@H](Cc1ccc(O)cc1)NC(=O)[C@@H]1CCCN1C(=O)[C@H](CC(C)C)NC(=O)[C@H](CCC(=O)O)NC(=O)[C@H](CC(=O)O)NC(=O)[C@H](CCC(=O)O)NC(=O)[C@@H](NC(=O)[C@H](Cc1ccccc1)NC(=O)[C@@H](N)CCC(=O)O)[C@@H](C)O)C(C)C)[C@@H](C)O)C(=O)O [IκBα pep] (H-EFTEDELPYDDCVFGGQRLTL-OH; N-terminus and C-terminus assumed)
  binding of IKKα/β heterodimer by pulldown: efficiently binds

Source: patent publication US20260265321A1, “PEPTIDE AND POLYPEPTIDE INHIBITING THE NF-KB SIGNALING PATHWAY” (Centre National de la Recherche Scientifique, priority 2023, published 2026)
